Key:
[1] = Typical duration of action (period of therapeutic effect) of an immediate release dose, from labeling; assay type: in vivo
Text: As used herein, “ATDAIRD” shall mean the average therapeutic duration of action of an effective immediate release dose” of a particular active ingredient. […] The therapeutic duration of action of a particular active ingredient can readily be determined from the dosing instructions in the labeling for immediate release products containing that particular active ingredient.

[2] = decongestant; typically administered every 2 to 4 hours; cited from earlier work

Structure (SMILES) | ATDAIRD (average therapeutic duration of action of an effective immediate release dose) [1] | duration of therapeutic effect [2]
CC(C(=O)O)c1cccc(C(=O)c2ccccc2)c1 (centres unmarked) [ketoprofen] | 5 h | 
CC(C)Cc1ccc(C(C)C(=O)O)cc1 (centres unmarked) [ibuprofen, 2-(4-isobutylphenyl)-propionic acid] | 5 h | 
CNC[C@H](O)c1cccc(O)c1 [phenylephrine, benzynemethanol, 3-hydroxy-α-[(methylamino)methyl]] |  | about 2.5 hours
COc1ccc2cc([C@H](C)C(=O)O)ccc2c1 [naproxen] | 10 h | 
CN[C@@H](C)[C@@H](O)c1ccccc1 [psuedoephedrine] | about 3 hours | 

Source: patent US8771716B2, “Modified release analgesic suspensions” (McNeil-PPC, Inc., priority 2006, dated 2014)
